Entries after “also recorded” stand apart in the source; their conditions may differ. Ends that are not written are not given here.
Assays:
[1] = Turbidity measurement (phase transition temperature Tt, coacervation) in phosphate buffer pH 7.4; format: physicochemical; details: turbidity at 400 nm, heating 0.5 ℃/min from 5 ℃, mean ± SE, at least three measurements
Procedure: Turbidity measurements were performed in accordance with previous reports. The temperature-dependent self-assembling properties of the ELP analogues were evaluated using a JASCO V-660 spectral photometer (JASCO Co., Tokyo, Japan). Peptide sample solutions of different concentrations (2.0, 5.0, 10, 20, 30, or 50 mg/mL) were prepared by dissolving each peptide (except for AADAAC-(FPGV)n) in phosphate buffer (27.4 mM Na2HPO4, 17.8 mM NaH2PO4, pH 7.4). AADAAC-(FPGV)4 was dissolved in Tris–HCl buffer solution (50.0 mM Tris, at pH 8.4 or 50.0 mM Tris, 154 mM NaCl, at pH 8.4) to prepare sample solutions of a concentration of 0.5 or 10 mg/mL in the absence or presence of the equimolar amount of CdCl2. Turbidity was measured at 400 nm with increasing or decreasing temperature at a rate of 0.5 ℃/min from 5 ℃. The concentration of each sample solution was measured at least three times. The self-assembling property was described by the phase transition temperature (Tt), which is the temperature at which the turbidity of the solution reaches half the maximum value.

[2] = RP-UPLC retention time, used as measure of peptide hydrophobicity; format: physicochemical; details: RP-UPLC-MS; chromatographic
Procedure: Peptide synthesis was carried out using the conventional solid-phase peptide synthesis procedure (see supplementary information). The synthesized peptides were purified using RP-HPLC. The purity and molecular weight of each peptide were confirmed using RP-UPLC-MS (Table S1 and Fig. S1). […]
Retention times of each peptide were determined by RP-UPLC-MS.

[3] = Dynamic light scattering (DLS) size distribution of coacervates; format: physicochemical; details: 10 to 50 ℃ in 10 ℃ steps; phosphate buffer pH 7.4; peptide concentrations as in Fig. 3 (2.0-50 mg/mL)
Procedure: The distribution of the particle size in the truncated ELP analogue solution was analyzed via DLS using Zetasizernano ZS (Malvern Instruments Ltd., Worcestershire, U.K.) in a measurement cell ZEN0112 (Malvern Instruments Ltd.)[33]. Peptide samples of different concentrations (2.0, 10, 20, 30, or 50 mg/mL) were prepared by dissolving each peptide in phosphate buffer (27.4 mM Na2HPO4, 17.8 mM NaH2PO4, pH 7.4) and filtered using the Millex-LG filter (pore size 0.2 µm, Merck Millipore) before measurement. DLS analysis was performed by increasing the temperature at 10 ℃ intervals from 10 to 50 ℃. Measurement duration was selected automatically. Parameter dataset “protein” (dataset: refractive index, 1.450; absorption, 0.001) was used as the material parameter, and parameter dataset “water” (dataset: refractive index, 1.330; viscosity, 0.8872) was chosen as the dispersant parameter. Attenuation was selected automatically. Each concentration was measured at least three times.

[4] = Optical microscopy of peptide aggregates with image analysis of particle size; format: physicochemical; details: peptide 10 mg/mL, phosphate buffer pH 7.4
Procedure: The morphology of the coacervates of (FPGVG)4, (FPGV)4, and (FPG)4 was observed using optical microscopy. Light field observation was performed using a Leica DM IL LED microscope (Leica Microsystems CMS, Wetzlar, Germany) equipped with HI PLAN 40 × (Leica Microsystems CMS) and HC PLAN 10 × (Leica Microsystems CMS) objectives. Each peptide was dissolved in phosphate buffer (27.4 mM Na2HPO4, 17.8 mM NaH2PO4, at pH 7.4) to a concentration of 10 mg/mL and applied on a glass slide. Sample imaging was performed below and above the Tt of each peptide using a Thermo Plate TP-CHSQM (Tokai Hit Co., Ltd., Shizuoka, Japan). Sample images above Tt were taken 3 min after the sample reached the target temperature. The details of the image analysis is shown in the Supplementary Information file.
Size distribution of coacervates of ELP analogues formed above the Tt was analyzed using optical microscopy images of each peptide. Image analysis was performed using Image J/Fiji (NIH, USA), an open-source image analysis software.^2 Spatial calibration was carried out using […] in original images. The images of peptide coacervates were converted to a binary image via the menu command Image > Type > 8-bit. Using "analyze particle" command, the Feret diameters of the particles within the image were measured.

[5] = Time-lapse thioflavin T (ThT) fluorescence assay; format: physicochemical; details: peptide 10 mg/mL; phosphate buffer pH 7.4; 15, 30 and 45 ℃; excitation 446 nm, emission 483 nm
Procedure: Thiofalvin T (ThT) fluorescence measurements were performed for (FPGVG)5, (FPGVG)4, (FPGV)5, and (FPGV)4. Each peptide was dissolved in phosphate buffer (27.4 mM Na2HPO4, 17.8 mM NaH2PO4, pH 7.4) to different concentrations (1.0 mg/mL for (FPGV)5, 5.0 mg/mL for (FPGVG)5 and (FPGV)4, and 10 mg/mL for (FPGVG)4, respectively). Then, 1 mM of ThT aqueous solution was added to each sample at a final ThT concentration of 25 μM) followed by incubation for 1 h at 4 °C. The fluorescence intensity was measured using a FP-8500 spectrofluorometer (JASCO Co.). The excitation was set at 446 nm and the emission was recorded at 483 nm. The fluorescence intensities of samples were monitored at 15 °C for 30 min. Then, the sample temperature was raised to 30 °C and the measurements were performed for another 30 min. The same measurement was also carried out at 45 °C for (FPGV)4.

[6] = Turbidity measurement of AADAAC-(FPGV)4 in Tris-HCl buffer pH 8.4 with or without CdCl2 / NaCl; format: physicochemical; details: for Tt: turbidity at 400 nm, mean ± SE, at least three measurements
Procedure: This hexapeptide sequence strongly and selectively binds to cadmium above pH 6.0, whereas this peptide releases metal ions below pH 4.0[51]. […] To assess the self-assembly property, turbidity measurements of AADAAC-(FPGV)4 were carried out under the same conditions as described above (Table 2 and Fig. 8). First, AADAAC-(FPGV)4 was dissolved to a concentration of 10 mg/mL in Tris–HCl buffer (pH 8.4) instead of phosphate buffer (pH 7.4), considering its use as a metal scavenging agent under basic conditions. Under these conditions, the Tt of AADAAC-(FPGV)4 was 41.6 ± 1.0 ℃ at a peptide concentration of 10 mg/mL. Since Tt tended to increase with the proportion of hydrophilic residues in the peptide, the self-assembling ability of AADAAC-(FPGV)4 was weakened compared with that of (FPGV)4, owing to the presence of hydrophilic Asp and Cys residues in the AADAAC sequence conjugated to (FPGV)4[34]. On the other hand, in the presence of Cd^2+, AADAAC-(FPGV)4 was insoluble in the solution. Therefore, the binding of the AADAAC sequence to Cd^2+ ions was thought to contribute to the enhanced self-assembly of AADAAC-(FPGV)4 in the presence of the metal ions. […] This characteristic of AADAAC-(FPGV)4 was similar to that of AADAAC-(FPGVG)4, which we previously reported. Subsequently, to verify whether this peptide can be used as a metal recovery agent at a lower peptide concentration, turbidity measurement using a low-concentration peptide solution (0.5 mg/mL, 0.236 mM) was performed. […] Thus, turbidity was measured in Tris–HCl buffer (50.0 mM Tris, 0.236 mM CdCl2, pH 8.4) containing 0.9% NaCl (154 mM, equivalent to saline), because it has been reported that salts such as NaCl increase the self-association and decrease the Tt of ELPs[52]. […] Owing to this drastic change in water solubility in the presence and absence of cadmium ions, AADAAC-(FPGV)4 was considered to be useful as a Cd^2+-selective metal-scavenging agent.
Turbidity measurements were performed in accordance with previous reports. The temperature-dependent self-assembling properties of the ELP analogues were evaluated using a JASCO V-660 spectral photometer (JASCO Co., Tokyo, Japan). Peptide sample solutions of different concentrations (2.0, 5.0, 10, 20, 30, or 50 mg/mL) were prepared by dissolving each peptide (except for AADAAC-(FPGV)n) in phosphate buffer (27.4 mM Na2HPO4, 17.8 mM NaH2PO4, pH 7.4). […] Turbidity was measured at 400 nm with increasing or decreasing temperature at a rate of 0.5 ℃/min from 5 ℃. The concentration of each sample solution was measured at least three times. […]

[7] = Colorimetric (xylenol orange) determination of Cd^2+ removal by peptide coacervation; details: peptide 1.0 mg/mL; for Concentration of metal ion in the supernatant: Cd^2+ (0.236 mM CdCl2), Tris-HCl (50.0 mM Tris, 599 mM NaCl, pH 8.0), at least three measurements; for Concentration of metal ion in the supernatant / Removal efficiency: mean ± SE; for Removal efficiency: Cd^2+, versus control without peptide
Procedure: (§1) Colorimetric analyses of cadmium ions (Cd^2+) were carried out to evaluate the number of metal ions absorbed into the coacervation phase of the peptides by using a spectral photometer (JASCO V-660)[45]. […] The peptide solutions were incubated at 4 ℃ for 3, 6, or 12 h and then at 60 ℃ for 1.5 h to separate into the lower coacervation phase from the upper equilibrium solution phase. After incubation, the peptide solution was immediately centrifuged at room temperature for 2 min (6,200 rpm) to remove aggregates. An aliquot of 333 µL of supernatant of the equilibrium solution phase was added to 600 µL of acetate buffer solution (pH5.4) including 67 μM of XO and incubated for 10 min. Subsequently, the concentrations of Cd^2+ or Zn^2+ were determined by measuring the absorbance at 575 nm or 550 nm, respectively, which corresponds to the absorbance of the metal-XO complex. The amount of metal ions absorbed in the peptide solution was determined by the calibration line, which was prepared in the same manner by using a series of standard CdCl2 or ZnCl2 aqueous solutions of known concentrations. The homogeneity of variances between the concentration of each metal ion in the supernatant and the control solution was confirmed using the F test. The statistical significance of the difference between the concentration of each metal ion in the supernatant and the control solution was determined using the Student's t-test. Results were considered statistically significant at P values of ≤ 0.01.

[8] = Colorimetric (xylenol orange) determination of Zn^2+ removal by peptide coacervation; details: peptide 1.0 mg/mL, mean ± SE
Procedure: as §1, with “The homogeneity of variances between the concentration of each metal ion in the supernatant and the control solution was confirmed using the F test.” left out, “Results were considered statistically significant at P values of ≤ 0.01.” left out

| Substance | Tt, phase transition temperature ([1]; peptide 5.0 mg/mL, phosphate buffer pH 7.4, half-maximal turbidity) [°C] | Tt, phase transition temperature ([1]; peptide 10 mg/mL, phosphate buffer (27.4 mM Na2HPO4, 17.8 mM NaH2PO4, pH 7.4), Tt = temperature at half-maximal turbidity) [°C] | UPLC retention time (measure of hydrophobicity) [2] [min] | Temperature-dependent particle size by DLS (in words) [3] | Morphology of aggregates (optical microscopy, in words) [4] | Particle size of coacervates (optical microscopy image analysis, Feret diameter) ([4]; above Tt ((FPGVG)4 40 °C, (FPGV)4 25 °C), ImageJ/Fiji) | ThT fluorescent intensity versus temperature (in words) [5] | Tt ([6]; peptide 0.5 mg/mL (0.236 mM), Tris-HCl buffer (50.0 mM Tris, pH 8.4) with 154 mM NaCl and 0.236 mM CdCl2 (equimolar)) [°C] | Coacervation (in words) ([6]; peptide 0.5 mg/mL (0.236 mM), Tris-HCl buffer (50.0 mM Tris, pH 8.4) with 154 mM NaCl, absence of Cd^2+) | Tt / solubility in the presence of Cd^2+ ([6]; peptide 10 mg/mL (4.71 mM), Tris-HCl buffer (50.0 mM Tris, pH 8.4) with 4.71 mM CdCl2) | Tt ([6]; peptide 10 mg/mL (4.71 mM), Tris-HCl buffer (50.0 mM Tris, pH 8.4), no additive, 0.5 ℃/min) [°C] | Concentration of metal ion in the supernatant ([7]; incubation 3 h at 4 ℃ then 60 ℃ 1.5 h, xylenol orange absorbance 575 nm) [ppm] | Concentration of metal ion in the supernatant ([7]; incubation 6 h at 4 ℃ then 60 ℃ 1.5 h) [ppm] | Concentration of metal ion in the supernatant ([7]; incubation 12 h at 4 ℃ then 60 ℃ 1.5 h) [ppm] | Removal efficiency ([7]; incubation 6 h) [%] | Removal efficiency ([7]; incubation 12 h) [%] | Cd^2+ concentration remaining in the supernatant ([7]; incubation for 12 h at 4 ℃ before heating) [%] | Concentration of metal ion in the supernatant ([8]; Zn^2+ (0.236 mM ZnCl2), incubation 12 h at 4 ℃ then 60 ℃ 1.5 h, Tris-HCl (50.0 mM Tris, 599 mM NaCl, pH 8.0), xylenol orange absorbance 550 nm, at least three measurements) [ppm] | Removal efficiency ([8]; Zn^2+, incubation 12 h, versus control without peptide) [%] |
| --- | --- | --- | --- | --- | --- | --- | --- | --- | --- | --- | --- | --- | --- | --- | --- | --- | --- | --- | --- |
| FPGVGFPGVGFPGVGFPGVG-NH2 [(FPGVG)4, reference compound] | 47.5 ± 0.3 | 33.8 ± 0.3 | 2.251 | formed sub-micron particles below Tt, which grew into micrometer-sized particles above Tt | spherical aggregates | about 1 µm | significantly elevated at 45 °C | – | – | – | – | – | – | – | – | – | – | – | – |
| AADAACFPGVFPGVFPGVFPGV-NH2 [AADAAC-(FPGV)4, H-AADAAC-(FPGV)4-NH2] | – | – | 2.496 | – | – | – | – | 13.8 ± 0.1 | did not show coacervation | insoluble; also recorded: Not dissolved | 41.6 ± 1.0 | 6.8 ± 0.11 | 2.5 ± 0.49 | 1.3 ± 0.046 | 90.9 ± 0.018 | 95.1 ± 0.002 | 4.9 | 4.4 ± 0.008 | 75.3 ± 0.001 |

Source: publication PMC9653453, “Development of truncated elastin-like peptide analogues with improved temperature-response and self-assembling properties” (Scientific Reports, 2022)
